Source: patent publication US20040242669A1, “Method of treating deficits associated with brain injury” (priority 2003, published 2004)
Marks after values point to notes of the source that are not given here.

Columns and labels:
Type in all cases: in vivo, rat
[1] = test system: reduced glutathione in brain areas of rats subjected to chronic brain occlusive ischemia; assay: Brain glutathione content and redox index after chronic brain occlusive ischemia; conditions: for reduced glutathione content: mean ± S.E.M.
Source text: A number of animals were subjected to a manipulation of the four major arteries of the brain with a method similar to that described by Pulsinelli et al., Ann. Neurol, 11, 491-498 (1982). Both vertebral arteries were cauterised under sodium pentobarbital anaesthesia and polyethylene cuffs PE-10 were placed loosely around the common carotid arteries without completely interrupting carotid blood flow. Two months after operation, all surviving animals showing no neurological gross abnormalities were admitted to drug treatment. Animals undergoing a sham operation were considered as controls.
At the end of the behavioral studies, the brain of animals sacrificed by decapitation were taken and rapidly frozen for analysis. Dissection and weighing were carried out at −25° C. The frozen forebrains were immediately powered under liquid nitrogen by an electromechanical apparatus and stored at […]. The assay of reduced and oxidized glutathione by 5,5′-dithibis-(2-nitrobenzoic acid) in frozen forebrain powder was carried out within 3 h, utilizing perchloric acid and N-ethylmaleimide in presence of ethylenediamidetetraacetic acid for the extraction procedure (Tietze, Anal Biochem, 27, 502-522, (1969)).
Animals with 2-month chronic brain occlusive ischemia, were subjected to a treatment with ropinirole, DHECP or saline for 7 days. At the end of treatment, the animals were admitted to behavioral testing. Controls were those animals with sham manipulation of brain arteries.
All animals used for hypobaric hypoxia induced amnesia and for chronic brain occlusive ischemia was sacrificed at the end behavioral procedure for biochemical analyses.

[2] = test system: animals with hypobaric hypoxia-induced amnesia; assay: Step-through passive avoidance, hypobaric hypoxia-induced amnesia; conditions: for Latency: hypobaric hypoxia, median latency to re-enter dark box, max 300 s
Description: (§1) Male rats of the Sprague-Dawley strain (purchased from Charles River, Italy) weighing 280±20 g were used throughout all experiments. The animals were housed two-three to a cage under a constant light-dark cycle (lights on between 8.00 and 20.00) at 21° C. Commercial food and tap water were available ad libitum. All animals were used only once in the behavioral experiments.
Ropinirole (ropinirole hydrochloride, SmithKline Beecham, Italy) and dihydroergocryptine (DHECP) α-dihydroergocryptine methanesulfonate, Monsanto, Italy) were dissolved in saline and injected subcutaneously (s.c.) at the dose of 0.5 and 1 mg/kg/day for 7 days. In the experiments with kainate-induced convulsions, ropinirole or DHECP were injected intravenously (i.v.) 30 min prior, and again at the same time of the intracerebroventricular (i.c.v) injection on kainic acid; Control animals received an injection of saline alone with the same procedure.
Passive avoidance behaviour was studied in a step-through type of passive avoidance situation (Ader et al., Psycon Sci, 26, 125-128 (1972)). Briefly the rats were adapted to the apparatus consisting of a large dark compartment equipped with a grid floor and a mesh-covered elevated runway attached to the front centre of the dark chamber. Adaptation training was followed by a single trial in which the rats were placed on the elevated platform and allowed to enter the dark box. Three such trials were given on the next day with an intertrial interval of 5 min after the trial. The rats received a single 2-s unavoidable scrambled foot-shock (0.20 mA) immediately after entering the dark compartment. Retention of the response was tested 24 h after the learning trial. The rats were placed on the elevated runway and the latency to re-enter the shock compartment was recorded up to a maximum of 300 s.
In the first experiment, the effects of ropinirole or DHECP were studied on amnesia induced by hypobaric hypoxia in rats. After a 7-day pretreatment with ropinirole, DHECP or saline, a group of animals was subjected to acute hypobaric hypoxia by means of a hypobaric chamber (Chantiers et Ateliers de Bretagne, France) causing depression to 300 mmHg (Boismare et al., Gerentology, 24, 6-13 (1978)). After 3 min in the chamber, the animals were removed and admitted for behavioral testing. Intact control rats were also introduced into the chamber but not subjected to hypobaric hypoxia.

kainate-induced epilepsy = assay: Kainate-induced convulsions (epilepsy); conditions: for Latency (s) to the first tonic-clonic seizure / Seizures (total number) / Mortality (%): kainic acid 10 μg/2 μl i.c.v.; for Latency (s) to the first tonic-clonic seizure / Seizures (total number): 30-min observation, mean ± S.E.M.; for Mortality (%): checked 2 h after convulsive agent
Description: as §1
Another group of animals were implanted under ether anaesthesia with a permanent plastic cannula in the right lateral ventricle (foramen interventriculare, Konig and Klippel A 6360) with another cannula into the right jugular vein. These animals were sacrificed at the end of behavioral procedure and the brains were utilized for biochemical analysis. Data were taken from animals showing no abnormalities at the postmortem examination. All experiments were carried out according to the European Community Council Directive 86/609/ECC and efforts were made to minimize animal suffering and to reduce the number of animals used.
Ropinirole (ropinirole hydrochloride, SmithKline Beecham, Italy) and dihydroergocryptine (DHECP) α-dihydroergocryptine methanesulfonate, Monsanto, Italy) were dissolved in saline and injected subcutaneously (s.c.) at the dose of 0.5 and 1 mg/kg/day for 7 days. In the experiments with kainate-induced convulsions, […], and again at the same time of the intracerebroventricular (i.c.v) injection on kainic acid; Control animals received an injection of saline alone with the same procedure.
Kainic acid (Sigma, USA) was dissolved in saline and injected i.c.v. at the dose of 10 μg/2 μi.
Over a 30-min observation, the following items were recorded per each animal receiving an i.c.v. injection of kainic acid: latency in s to the first tonic-clonic seizure; total number of seizures, percent rate of mortality (checked 2 h after the administration of the convulsive agent).
Behavioral scoring of kainate-induced convulsions was started immediately after i.c.v. injection of the drug and proceeded for 30 min. Ropinirole, DHECP or saline were injected twice, 30 min prior and, again, at the same time of the i.c.v. administration of kainic acid.

[3] = kainate-induced seizures, summary of Table 3

Structure (SMILES): CC(C)C[C@H]1C(=O)N2CCC[C@H]2[C@]2(O)O[C@](NC(=O)[C@@H]3C[C@@H]4c5cccc6[nH]cc(c56)C[C@H]4N(C)C3)(C(C)C)C(=O)N12 [DHECP, α-dihydroergocryptine methanesulfonate]
- glutathione redox index (glutathione reduced/glutathione oxidized ratio) ([1]; Cortex, 0.5 mg/kg): 2.5
- reduced glutathione content ([1]; Cortex, 0.5 mg/kg): 2.3 ± 0.1 mM
- glutathione redox index (glutathione reduced/glutathione oxidized ratio) ([1]; Cortex, 1 mg/kg): 2.3
- reduced glutathione content ([1]; Cortex, 1 mg/kg): 2.6 ± 0.2 mM
- glutathione redox index (glutathione reduced/glutathione oxidized ratio) ([1]; Hippocampus, 0.5 mg/kg): 1.8
- reduced glutathione content ([1]; Hippocampus, 0.5 mg/kg): 2.0 ± 0.2 mM
- glutathione redox index (glutathione reduced/glutathione oxidized ratio) ([1]; Hippocampus, 1 mg/kg): 2.2
- reduced glutathione content ([1]; Hippocampus, 1 mg/kg): 2.3 ± 0.3 mM
- glutathione redox index (glutathione reduced/glutathione oxidized ratio) ([1]; Hypothalamus, 0.5 mg/kg): 2.6
- reduced glutathione content ([1]; Hypothalamus, 0.5 mg/kg): 2.8 ± 0.2 mM
- glutathione redox index (glutathione reduced/glutathione oxidized ratio) ([1]; Hypothalamus, 1 mg/kg): 2.7
- reduced glutathione content ([1]; Hypothalamus, 1 mg/kg): 2.7 ± 0.2 mM
- glutathione redox index (glutathione reduced/glutathione oxidized ratio) ([1]; Striatum, 0.5 mg/kg): 0.7
- reduced glutathione content ([1]; Striatum, 0.5 mg/kg): 1.8 ± 0.2 mM
- glutathione redox index (glutathione reduced/glutathione oxidized ratio) ([1]; Striatum, 1 mg/kg): 0.7
- reduced glutathione content ([1]; Striatum, 1 mg/kg): 1.7 ± 0.2 mM
- latency to re-enter the dark box (effect of treatment, in words) ([2]; hypobaric hypoxia-induced amnesia, summary of Table 1): increase in these behavioral parameters, however, for the latter only with the greater dose
- Latency ([2]; 0.5 mg/kg/day s.c. for 7 days): 30^e
- Latency ([2]; 1 mg/kg/day s.c. for 7 days): 74^f
- latency to the first tonic-clonic seizure (effect of treatment, in words) (kainate-induced epilepsy; [3]): did not modify
- percent mortality rate (effect of treatment, in words) (kainate-induced epilepsy; [3]): significant decrease
- total number of kainate-induced seizures (effect of treatment, in words) (kainate-induced epilepsy; [3]): did not modify
- Latency (s) to the first tonic-clonic seizure (kainate-induced epilepsy; 0.5 mg/kg injected s.c. twice (30 min prior and at kainic acid)): 56.9 ± 8.5 s
- Seizures (total number) (kainate-induced epilepsy; 0.5 mg/kg injected s.c. twice): 7.8 ± 1.0
- Mortality (%) (kainate-induced epilepsy; 0.5 mg/kg injected s.c. twice): 10^a %
- Latency (s) to the first tonic-clonic seizure (kainate-induced epilepsy; 1 mg/kg injected s.c. twice (30 min prior and at kainic acid)): 69.2 ± 6.5 s
- Seizures (total number) (kainate-induced epilepsy; 1 mg/kg injected s.c. twice): 5.7 ± 1.1
- Mortality (%) (kainate-induced epilepsy; 1 mg/kg injected s.c. twice): 10^a %
